Tests used:
[1] = molecular target: T1, nuclear factor-kappa B (NF-kB)-inducing kinase (NIK) (Homo sapiens, UniProt Q99558); test: NIK Enzyme Inhibition Assay (Transcreener ADP assay); type: biochemical; settings: purified NIK 0.2-1 nM, 10 uM ATP, fluorescence polarization, Morrison's quadratic equation; read-out: inhibitory value (Ki) for NIK
T1 construct: made in house; host or cells: baculovirus-infected insect cells

[2] = system: REL-A (p65) nuclear translocation in HeLa cells; test: NIK RelA Translocation Assay (classical NF-kB signaling); type: cell-based; settings: Homo sapiens; HeLa cells, compounds 4.5 hours, 10 ng/mL TNF-α 30 minutes; read-out: inhibitory value (IC50) for NIK RelA Translocation Assay
Description: (§1) (2) A second set of cell assay was used to define the selectivity of NIK inhibitors toward inhibition of classical vs. non-classical NF-kB signaling and rely on quantification of the nuclear translocation of p52 (NF-kB2) and REL-A (p65) using high content cellular imaging. For the p52 (non-classical NF-kB signaling) nuclear translocation assay, HeLa cells were treated with different concentrations of compounds (0.2% DMSO final) in medium containing 10% fetal bovine serum and then stimulated with 100 ng/mL of an anti-lymphotoxin beta receptor antibody (R&D Systems) for 5 hours. In the REL-A nuclear translocation assay, HeLa cells were incubated with compounds (0.2% DMSO final) for 4.5 hours in medium containing 10% fetal bovine serum before stimulating them with 10 ng/mL tumor necrosis factor (TNF)-α (R&D Systems) for 30 minutes. Cells were fixed with 4% paraformaldehyde, permeabilized by adding 0.1% Triton X-100 in phosphate buffered saline, and then incubated with either 2 ug/mL anti-p52 antibody (Millipore) or 400 ng/mL anti-REL-A (p65) antibody (Santa Cruz Biotechnology). Finally, the cells were incubated with an Alexa488-labeled secondary antibody (Invitrogen) and DRAQ5 DNA stain (Biostatus). Imaging was carried out using an Opera reader (Perkin Elmer) and data are analyzed with the aid of Acapella software (Perkin Elmer). The p52 or REL-A translocation into the nucleus was quantified by the ratio of the nuclear to cytoplasmic signal intensity. The concentration of inhibitor required for 50% inhibition (IC50 values) in these cell assays were derived from the plots of signal vs. inhibitor concentration. The compounds in listed in Table 1 have the corresponding inhibitory value (IC50 in micromolar) for NIK p52 Translocation Assay (values for compounds are presented in the same order as found in Table 1, and “na” means the data for this assay is to be determined): 0.326, 0.33, na, na, na, 0.218, 0.07, na, na, na, 0.129, 7.6, 0.077, 3.4, na, 0.518, na, 0.059, 0.514, 0.127, na, na, 0.010, na, na, 0.313, 0.275, na, 0.0727, na, na, na, na, na, na, 0.194, na, 6.4, 0.22, 0.346, na, na, na and na, na, na, na, na, na, 0.447, na, 0.089, 0.479, 0.489, 0.243, 0.747, 1, na, 1.9, 0.552, 2.1, na. na, na, na, na and na.
The compounds in listed in Table 1 has the corresponding inhibitory value (IC50 in micromolar) for NIK RelA Translocation Assay (values for compounds are presented in the same order as found in Table 1): 0.326, 0.33, na, na, na, 0.218, 0.07, na, na, na, na, na, 0.129, 7.6, 0.077, 3.4, na, 0.518, na, 0.059, 0.514, 0.127, na, na, 0.010, na, na, 0.313, 0.275, na, na, 0.0727, na, na, na, na, na, na, 0.194, na, 6.4, 0.22, 0.346, na, na, na, na, na, na, na, na, na, 0.447, na, 0.089, 0.479, 0.489, 0.243, 0.747, 1, na, 1.9, 0.552, 2.1, na, na, na, na, na and na.

[3] = system: NF-kB signaling through NIK in human embryonic kidney 293 cells; test: 293-NIK NF-kB-Luciferase reporter assay; type: cell-based; settings: HEK293, 293 cells with tetracycline-inducible NIK, 1 ug/mL doxycycline, 24 hours, read-out: inhibitory value (IC50) for 293-NIK NF-kB-Luciferase activity
Excerpt: (1) The first assay was used to profile whether a test compound can inhibit the NF-kB signally through NIK inhibition without affecting cell viability. In this assay, human embryonic kidney 293 cells was stably transfected with a tetracycline-inducible NIK DNA construct containing a cytomegalovirus promoter plus two reporter DNA constructs. One reporter encoded firefly luciferase under the control of three repeats of an NF-kB response element from the ELAM-1 gene and reflects the level of NIK activity in the cells, whereas the other reporter constitutively expressed Renilla luciferase under the control of the herpes simplex virus thymidine kinase promoter and served as a general measure of cell viability. Cells were incubated with different concentrations of compounds (0.2% DMSO final) in medium containing 1 ug/mL doxycycline and 10% tet-system approved fetal bovine serum (Clontech) for 24 hours, after which the reporters' signals were detected using the Dual Glo luciferase detection system (Promega) according to the vendor's protocol. The compounds listed in Table 1 have the corresponding inhibitory value (IC50 in micromolar) for 293-NIK NF-kB-Luciferase activity (values for compounds are presented in the same order as found in Table 1): na, 0.059, na, na, na, 0.105, 0.027, na, 20, 1.2, na, 1.8, 0.0231, 0.879, 0.0361, 0.582, na, 0.142, na, 0.403, 0.059, 0.0331, na, na, 0.0573, 1.5, na, na, 0.0722, na, na, 0.589, 12.7, 3.7, 14.9, na, 0.707, 1, 0.0311, 0.332, 0.309, 0.0142, 0.051, 2.8, 0.129, na, na, 1.5, na, na, na, 1.3, 0.062, 20, 0.31, 0.104, 0.091, 0.037, 0.085, 0.279, na, 0.305, 0.064, 0.332, 0.133, 0.168, 0.217, 0.553, na and na.

[4] = system: p52 (NF-kB2) nuclear translocation in HeLa cells; test: NIK p52 Translocation Assay (non-classical NF-kB signaling); type: cell-based; settings: Homo sapiens; HeLa cells, 100 ng/mL anti-lymphotoxin beta receptor antibody, 5 hours; read-out: inhibitory value (IC50) for NIK p52 Translocation Assay
Description: as §1

T1 sequence (Q99558 whole entry): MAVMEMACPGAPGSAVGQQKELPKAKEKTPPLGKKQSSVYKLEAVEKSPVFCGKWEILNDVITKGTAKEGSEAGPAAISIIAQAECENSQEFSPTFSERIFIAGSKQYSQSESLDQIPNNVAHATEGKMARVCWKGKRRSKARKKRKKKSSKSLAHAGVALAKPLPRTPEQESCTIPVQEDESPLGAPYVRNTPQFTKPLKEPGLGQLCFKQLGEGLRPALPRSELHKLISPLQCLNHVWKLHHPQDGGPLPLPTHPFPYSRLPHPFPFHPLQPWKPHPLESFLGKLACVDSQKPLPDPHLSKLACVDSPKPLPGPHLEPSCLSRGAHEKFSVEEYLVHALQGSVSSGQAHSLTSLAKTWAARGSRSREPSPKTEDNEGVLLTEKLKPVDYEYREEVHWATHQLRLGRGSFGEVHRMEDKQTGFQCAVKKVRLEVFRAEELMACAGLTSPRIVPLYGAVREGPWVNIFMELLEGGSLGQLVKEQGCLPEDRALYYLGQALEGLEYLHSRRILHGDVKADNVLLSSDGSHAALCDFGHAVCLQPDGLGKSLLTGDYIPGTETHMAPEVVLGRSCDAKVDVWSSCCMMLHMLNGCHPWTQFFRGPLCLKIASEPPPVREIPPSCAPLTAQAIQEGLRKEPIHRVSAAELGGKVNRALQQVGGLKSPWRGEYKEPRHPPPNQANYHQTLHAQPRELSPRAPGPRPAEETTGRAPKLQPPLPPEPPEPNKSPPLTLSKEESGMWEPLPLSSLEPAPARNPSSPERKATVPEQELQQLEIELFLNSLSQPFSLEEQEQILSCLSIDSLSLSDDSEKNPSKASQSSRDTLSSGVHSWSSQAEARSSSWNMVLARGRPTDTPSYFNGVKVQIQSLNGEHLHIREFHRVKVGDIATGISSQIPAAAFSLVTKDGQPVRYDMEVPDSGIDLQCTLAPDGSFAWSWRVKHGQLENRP

Ki [1] | IC50 [2] | SMILES | IC50 [3] | IC50 [4]
49 nM | 59 nM | CC(C)(O)C#Cc1ccc2[nH]c(=O)n(-c3ccnc(N)n3)c2c1 [Example T1-20, 1-(2-aminopyrimidin-4-yl)-6-(3-hydroxy-3-methylbut-1-ynyl)-1H-benzo[d]imidazol-2(3H)-one] | 403 nM | 127 nM
12 nM | 10 nM | CN(C)Cc1nn(-c2ccnc(N)n2)c2cc(C#CC(C)(C)O)ccc12 [Example T1-25, 4-(1-(2-aminopyrimidin-4-yl)-3-((dimethylamino)methyl)-1H-indazol-6-yl)-2-methylbut-3-yn-2-ol] | 57.3 nM | –
0.42 nM | 313 nM | Cc1cc(C(C)(O)C#Cc2ccc3ncn(-c4ccnc(N)n4)c3c2)no1 (stereo not drawn) [Example T1-28, 4-(1-(2-aminopyrimidin-4-yl)-1H-benzo[d]imidazol-6-yl)-2-(5-methylisoxazol-3-yl) but-3-yn-2-ol] | – | –
0.9 nM | 275 nM | CN(C)C(=O)c1nn(-c2ccnc(N)n2)c2cc(C#CC(C)(O)c3nccs3)ccc12 (stereo not drawn) [Example T1-29, 1-(2-aminopyrimidin-4-yl)-6-(3-hydroxy-3-(thiazol-2-yl)but-1-ynyl)-N,N-dimethyl-1H-indazole-3-carboxamide] | 72.2 nM | 72.7 nM
1.3 nM | 72.7 nM | CN(C)Cc1nn(-c2ccnc(N)n2)c2cc(C#CC(C)(O)c3ncco3)ccc12 (stereo not drawn) [Example T1-32, 4-(1-(2-aminopyrimidin-4-yl)-3-((dimethylamino)methyl)-1H-indazol-6-yl)-2-(oxazol-2-yl)but-3-yn-2-ol] | 589 nM | –
0.25 nM | 194 nM | CC(O)(C#Cc1cc2c(cc1F)ncn2-c1ccnc(N)n1)c1nccs1 (stereo not drawn) [Example T1-39, 4-(1-(2-aminopyrimidin-4-yl)-5-fluoro-1H-benzo[d]imidazol-6-yl)-2-(thiazol-2-yl)but-3-yn-2-ol] | 31.1 nM | 220 nM
8.5 nM | 6400 nM | Cc1cc(C(C)(O)C#Cc2ccc3ncn(-c4ccnc(N)n4)c3c2)on1 (stereo not drawn) [Example T1-41, 4-(1-(2-aminopyrimidin-4-yl)-1H-benzo[d]imidazol-6-yl)-2-(3-methylisoxazol-5-yl) but-3-yn-2-ol] | 309 nM | –
0.2 nM | 346 nM | CN(C)C(=O)c1nn(-c2ccnc(N)n2)c2cc(C#CC(C)(O)c3ncco3)ccc12 (stereo not drawn) [Example T1-43, 1-(2-aminopyrimidin-4-yl)-6-(3-hydroxy-3-(oxazol-2-yl)but-1-ynyl)-N,N-dimethyl-1H-indazole-3-carboxamide] | 51 nM | –

Further lines, the molecule ahead of its results:

SMILES | Ki [1] | IC50 [2] | IC50 [3] | IC50 [4]
Cc1nn(-c2ccnc(N)n2)c2cc(C#C[C@@](C)(O)c3nccs3)ccc12 (stereo in doubt) [Example T1-42, 4-(1-(2-aminopyrimidin-4-yl)-3-methyl-1H-indazol-6-yl)-2-(thiazol-2-yl)but-3-yn-2-ol] | 0.14 nM | 220 nM | 14.2 nM | –
Cc1nn(-c2ccnc(N)n2)c2cc(C#CC(C)(O)c3nccs3)ccc12 (stereo not drawn) [Example T1-13, 4-(1-(2-aminopyrimidin-4-yl)-3-methyl-1H-indazol-6-yl)-2-(thiazol-2-yl)but-3-yn-2-ol] | 0.262 nM | 129 nM | 23.1 nM | 77 nM
CC(O)(C#Cc1ccc2nc(C3CC3)n(-c3ccnc(N)n3)c2c1)c1nccs1 (stereo not drawn) [Example T1-14, 4-(1-(2-aminopyrimidin-4-yl)-2-cyclopropyl-1H-benzo[d]imidazol-6-yl)-2-(thiazol-2-yl) but-3-yn-2-ol] | 6.9 nM | 7600 nM | 879 nM | 3400 nM
CC(O)(C#Cc1ccc2cnn(-c3ccnc(N)n3)c2c1)c1ncco1 (stereo not drawn) [Example T1-15, 4-(1-(2-aminopyrimidin-4-yl)-1H-indazol-6-yl)-2-(oxazol-2-yl)but-3-yn-2-ol] | 0.32 nM | 77 nM | 36.1 nM | –
CC1(C(=O)Nc2cnc(N)nc2-n2ncc3ccc(C#CC(C)(O)c4nccs4)cc32)COC1 (stereo not drawn) [Example T1-16, N-(2-amino-4-(6-(3-hydroxy-3-(thiazol-2-yl)but-1-ynyl)-1H-indazol-1-yl)pyrimidin-5-yl)-3-methyloxetane-3-carboxamide] | 27 nM | 3400 nM | 582 nM | 518 nM
CC(O)(C#Cc1ccc2c(CN3CCOCC3)nn(-c3ccnc(N)n3)c2c1)c1nccs1 (stereo not drawn) [Example T1-18, 4-(1-(2-aminopyrimidin-4-yl)-3-(morpholinomethyl)-1H-indazol-6-yl)-2-(thiazol-2-yl) but-3-yn-2-ol] | 1.7 nM | 518 nM | 142 nM | 59 nM
CC(O)(C#Cc1ccc2[nH]c(=O)n(-c3ccnc(N)n3)c2c1)c1nccs1 (stereo not drawn) [Example T1-21, 1-(2-aminopyrimidin-4-yl)-6-(3-hydroxy-3-(thiazol-2-yl)but-1-ynyl)-1H-benzo[d] imidazol-2(3H)-one] | 0.3 nM | 514 nM | 59 nM | –

From patent publication US8901313B2, “6,5-heterocyclic propargylic alcohol compounds and uses therefor” (Genentech, Inc., priority 2011, dated 2014)
